ChEMBL document CHEMBL3046832, “Synthesis of some sulfonamides, disubstituted sulfonylureas or thioureas and some structurally related variants. A class of promising antitumor agents” (2007)

How the values were obtained:
Assay type in all cases: functional
M14 = assay: Cytotoxicity against Homo sapiens (human) M14 cells after 48 hr by SRB assay; settings: M14, 48 h
LOX IMVI = assay: Cytotoxicity against Homo sapiens (human) LOXIMVI cells after 48 hr by SRB assay
U-251 = assay: Cytotoxicity against Homo sapiens (human) U251 cells after 48 hr by SRB assay; settings: U-251, 48 h
Hs-578T = assay: Cytotoxicity against Homo sapiens (human) Hs578T cells after 48 hr by SRB assay
MCF7 [1] = assay: Cytotoxicity against Homo sapiens (human) MCF7 cells after 48 hr by SRB assay; settings: MCF7, 48 h
MDA-MB-231 = assay: Cytotoxicity against Homo sapiens (human) MDA-MB-231 cells after 48 hr by SRB assay; settings: MDA-MB-231, 48 h
DU-145 = assay: Cytotoxicity against Homo sapiens (human) DU145 cells after 48 hr by SRB assay; settings: DU-145, 48 h
UO-31 = assay: Cytotoxicity against Homo sapiens (human) UO31 cells after 48 hr by SRB assay; settings: UO-31, 48 h
RXF 393 = assay: Cytotoxicity against Homo sapiens (human) RXF393 cells after 48 hr by SRB assay; settings: RXF 393, 48 h
CAKI-1 = assay: Cytotoxicity against Homo sapiens (human) Caki1 cells after 48 hr by SRB assay; settings: CAKI-1, 48 h
ACHN = assay: Cytotoxicity against Homo sapiens (human) ACHN cells after 48 hr by SRB assay
786-0 = assay: Cytotoxicity against Homo sapiens (human) 786-0 cells after 48 hr by SRB assay; settings: 786-0, 48 h
[2] = Cytotoxicity against Homo sapiens (human) NCI-ADR-RES cells after 48 hr by SRB assay
SK-OV-3 = assay: Cytotoxicity against Homo sapiens (human) SKOV3 cells after 48 hr by SRB assay; settings: SK-OV-3, 48 h
OVCAR-8 = assay: Cytotoxicity against Homo sapiens (human) OVCAR8 cells after 48 hr by SRB assay; settings: OVCAR-8, 48 h
OVCAR-5 = assay: Cytotoxicity against Homo sapiens (human) OVCAR5 cells after 48 hr by SRB assay; settings: OVCAR-5, 48 h
OVCAR-3 = assay: Cytotoxicity against Homo sapiens (human) OVCAR3 cells after 48 hr by SRB assay; settings: OVCAR-3, 48 h
UACC-62 = assay: Cytotoxicity against Homo sapiens (human) UACC62 cells after 48 hr by SRB assay; settings: UACC-62, 48 h
UACC-257 = assay: Cytotoxicity against Homo sapiens (human) UACC257 cells after 48 hr by SRB assay; settings: UACC-257, 48 h
SK-MEL-5 = assay: Cytotoxicity against Homo sapiens (human) SK-MEL-5 cells after 48 hr by SRB assay; settings: SK-MEL-5, 48 h
SK-MEL-28 = assay: Cytotoxicity against Homo sapiens (human) SK-MEL-28 cells after 48 hr by SRB assay; settings: SK-MEL-28, 48 h
[3] = Cytotoxicity against Homo sapiens (human) breast cancer cells after 48 hr by SRB assay; settings: Cancer cell lines
[4] = Cytotoxicity against Homo sapiens (human) renal cancer cells after 48 hr by SRB assay; settings: Cancer cell lines
[5] = Cytotoxicity against Homo sapiens (human) ovarian cancer cells after 48 hr by SRB assay; settings: Cancer cell lines
[6] = Cytotoxicity against Homo sapiens (human) melanoma cells after 48 hr by SRB assay; settings: Melanoma cell
[7] = Cytotoxicity against Homo sapiens (human) CNS cancer cells after 48 hr by SRB assay; settings: Cancer cell lines
[8] = Cytotoxicity against Homo sapiens (human) non-small cell lung cancer cells after 48 hr by SRB assay; settings: Cancer cell lines
NCI-H460 = assay: Cytotoxicity against Homo sapiens (human) NCI-H460 cells assessed as cellular growth after 48 hr by Alamar blue assay; design: concentration or dose not given beside the values
SF-268 [9] = assay: Cytotoxicity against Homo sapiens (human) SF268 cells assessed as cellular growth after 48 hr by Alamar blue assay; design: concentration or dose not given beside the values
BT-549 = assay: Cytotoxicity against Homo sapiens (human) BT549 cells after 48 hr by SRB assay; settings: BT-549, 48 h
T47D = assay: Cytotoxicity against Homo sapiens (human) T47D cells after 48 hr by SRB assay
SNB-19 = assay: Cytotoxicity against Homo sapiens (human) SNB19 cells after 48 hr by SRB assay; settings: SNB-19, 48 h
SF-539 = assay: Cytotoxicity against Homo sapiens (human) SF539 cells after 48 hr by SRB assay; settings: SF-539, 48 h
SF-295 = assay: Cytotoxicity against Homo sapiens (human) SF295 cells after 48 hr by SRB assay; settings: SF-295, 48 h
SW-620 = assay: Cytotoxicity against Homo sapiens (human) SW620 cells after 48 hr by SRB assay; settings: SW-620, 48 h
SF-268 [10] = assay: Cytotoxicity against Homo sapiens (human) SF268 cells after 48 hr by SRB assay; settings: SF-268, 48 h
KM12 = assay: Cytotoxicity against Homo sapiens (human) KM12 cells after 48 hr by SRB assay; settings: KM12, 48 h
HCT-15 = assay: Cytotoxicity against Homo sapiens (human) HCT15 cells after 48 hr by SRB assay; settings: HCT-15, 48 h
HT-29 = assay: Cytotoxicity against Homo sapiens (human) HT-29 cells after 48 hr by SRB assay; settings: HT-29, 48 h
NCI-H522 = assay: Cytotoxicity against Homo sapiens (human) NCI-H522 cells after 48 hr by SRB assay; settings: NCI-H522, 48 h
COLO 205 = assay: Cytotoxicity against Homo sapiens (human) COLO205 cells after 48 hr by SRB assay; settings: COLO 205, 48 h
NCI-H23 = assay: Cytotoxicity against Homo sapiens (human) NCI-H23 cells after 48 hr by SRB assay; settings: NCI-H23, 48 h
[11] = Cytotoxicity against Homo sapiens (human) NCI-H322 cells after 48 hr by SRB assay; settings: NCI-H322, 48 h
HOP-92 = assay: Cytotoxicity against Homo sapiens (human) HOP92 cells after 48 hr by SRB assay; settings: HOP-92, 48 h
EKVX = assay: Cytotoxicity against Homo sapiens (human) EKVX cells after 48 hr by SRB assay
A549 = assay: Cytotoxicity against Homo sapiens (human) A549 cells after 48 hr by SRB assay; settings: A549, 48 h
MCF7 [12] = assay: Cytotoxicity against Homo sapiens (human) MCF7 cells assessed as cellular growth after 48 hr by Alamar blue assay; design: concentration or dose not given beside the values

Compound: O=C(NC1CCCCC1)NS(=O)(=O)c1ccc(-n2nc3c(c2-c2cccs2)Cc2ccccc2-3)cc1
- GI50 (M14): 64.1 µM
- GI50 (LOX IMVI): 5.66 µM
- GI50 (U-251): 25.6 µM
- GI50 (Hs-578T): 37.5 µM
- GI50 (MCF7 [1]): > 100 µM
- GI50 (MDA-MB-231): 27.9 µM
- GI50 (DU-145): 31.9 µM
- GI50 (UO-31): 15.4 µM
- GI50 (RXF 393): 29.2 µM
- GI50 (CAKI-1): 16 µM
- GI50 (ACHN): 17.3 µM
- GI50 (786-0): 32.3 µM
- GI50 [2]: 20.4 µM
- GI50 (SK-OV-3): 44.5 µM
- GI50 (OVCAR-8): 25.3 µM
- GI50 (OVCAR-5): 26.6 µM
- GI50 (OVCAR-3): 24.5 µM
- GI50 (UACC-62): 19.3 µM
- GI50 (UACC-257): 24.8 µM
- GI50 (SK-MEL-5): 18.7 µM
- GI50 (SK-MEL-28): 34.2 µM
- GI50 [3]: 41.7 µM
- TGI [3]: 94.2 µM
- GI50 [4]: 21.3 µM
- TGI [4]: 40.1 µM
- GI50 [5]: 25.3 µM
- TGI [5]: 80.3 µM
- GI50 [6]: 27.2 µM
- TGI [6]: 53.4 µM
- GI50 [7]: 49.5 µM
- TGI [7]: 93.6 µM
- GI50 [8]: 38.7 µM
- TGI [8]: 46.7 µM
- Activity (NCI-H460): <=32%
- Activity (SF-268 [9]): <=32%
- GI50 (BT-549): 33.7 µM
- GI50 (T47D): 39.7 µM
- GI50 (SNB-19): 56.8 µM
- GI50 (SF-539): 27.6 µM
- GI50 (SF-295): 34.9 µM
- GI50 (SW-620): 20.7 µM
- GI50 (SF-268 [10]): > 100 µM
- GI50 (KM12): 34.9 µM
- GI50 (HCT-15): 17.8 µM
- GI50 (HT-29): 34.3 µM
- GI50 (NCI-H522): 12.3 µM
- GI50 (COLO 205): 23.3 µM
- GI50 (NCI-H23): 12.8 µM
- GI50 [11]: 37.9 µM
- GI50 (HOP-92): 14.3 µM
- GI50 (EKVX): 28.6 µM
- GI50 (A549): 28 µM
- Activity (MCF7 [12]): <=32%

Compound: NS(=O)(=O)c1ccc(N2N=C3c4ccccc4CC3C2c2cccs2)cc1 (stereo unspecified)
- GI50 (M14): 26 µM
- GI50 (LOX IMVI): 19.1 µM
- GI50 (U-251): 19.4 µM
- GI50 (Hs-578T): 28.7 µM
- GI50 (MCF7 [1]): > 100 µM
- GI50 (MDA-MB-231): 16.8 µM
- GI50 (DU-145): 14.5 µM
- GI50 (UO-31): 39.4 µM
- GI50 (RXF 393): 20.6 µM
- GI50 (CAKI-1): 19.6 µM
- GI50 (ACHN): 19.8 µM
- GI50 (786-0): 17.6 µM
- GI50 [2]: 17.1 µM
- GI50 (SK-OV-3): 48 µM
- GI50 (OVCAR-8): 15.3 µM
- GI50 (OVCAR-5): 26.6 µM
- GI50 (OVCAR-3): 24.8 µM
- GI50 (UACC-62): 21.8 µM
- GI50 (UACC-257): 29.7 µM
- GI50 (SK-MEL-5): 18 µM
- GI50 (SK-MEL-28): 75.6 µM
- GI50 [3]: 38.3 µM
- TGI [3]: 52.1 µM
- GI50 [4]: 21.9 µM
- TGI [4]: 43.7 µM
- GI50 [5]: 40.8 µM
- TGI [5]: 79.6 µM
- GI50 [6]: 41.5 µM
- TGI [6]: 51 µM
- GI50 [7]: 36.4 µM
- TGI [7]: 70.3 µM
- GI50 [8]: 29.6 µM
- TGI [8]: 45.5 µM
- Activity (NCI-H460): <=32%
- Activity (SF-268 [9]): <=32%
- GI50 (BT-549): 19.3 µM
- GI50 (T47D): 66.9 µM
- GI50 (SNB-19): 34.4 µM
- GI50 (SF-539): 17.4 µM
- GI50 (SF-295): 16.2 µM
- GI50 (SW-620): 35.4 µM
- GI50 (SF-268 [10]): > 100 µM
- GI50 (KM12): 15.7 µM
- GI50 (HCT-15): 34.7 µM
- GI50 (HT-29): 26.1 µM
- GI50 (NCI-H522): 39.3 µM
- GI50 (COLO 205): 58.9 µM
- GI50 (NCI-H23): 20.3 µM
- GI50 [11]: 5.79 µM
- GI50 (HOP-92): 25.8 µM
- GI50 (EKVX): 15.9 µM
- GI50 (A549): 13.1 µM
- Activity (MCF7 [12]): <=32%
